The source of these data is patent publication US20220169672A1, “COMPOUNDS FOR TARGETED THERAPIES OF CASTRATION RESISTANT PROSTATE CANCER” (Purdue Research Foundation, priority 2019, published 2022).

Like-named read-outs stand apart in the source and are kept apart here. A value given as a limit tells only on which side of the number the result lay.

The test system of data set [1] is C4-2 cells. Nature of the data set: Cell proliferation / growth inhibition in CRPC C4-2 cells. The data set is classed as cell-based, human. The protocol: (§1) To identify initial lead(s), we first tested all ten drugs in vitro in human prostate cancer LNCaP and CRPC C4-2 cells to see their growth inhibition effect.
We assessed anti-cancer activity of the synthetic molecules in prostate cancer cell lines as well as toxicity of the active molecules in normal human cell line.
(§2) The LNCaP, C4-2 & RWPE-1 cell lines were provided by Professor Timothy Ratliff (Purdue University Center for Cancer Research, USA). All these cells were and maintained at 37° C. with 5% CO2 atmosphere in a humidified incubator following American Type Culture Collection (ATCC) protocol. LNCaP cells were grown in RPMI-1640 (Gibco) supplemented with 10% FBS (Atlanta Biologics), 20 mM HEPES and 1% penicillin/streptomycin (Invitrogen). C4-2 cells were grown in 4:1 DMEM/F12-K medium (Gibco) supplemented with 10% FBS (Atlanta Biologics), 1% penicillin/streptomycin (Invitrogen), 3 mg/mL sodium bicarbonate, 5 μg/mL insulin, 1.36 ng/mL triiodothyronine, 5 μg/mL transferrin, 0.25 μg/mL biotin and 25 μg/mL adenine. For normal growth, RWPE-1 cells were maintained in Keratinocyte Serum Free Medium (K-SFM) (Invitrogen) supplemented with 0.05 mg/mL bovine pituitary extract (BPE) and 5 ng/mL epidermal growth factor (EGF). […] For experiments, cells were used from 3 to 12 passages from thawing.
(§3) The cell proliferation experiment was carried out by the ‘Cell Titer-Blue Cell Viability Assay,’ In this assay, approximately 5,000 cells/well were seeded in 100 μL growth media in poly-L-lysine coated 96-well plates. Next day, the cells were treated with additional 100 μL of various concentrations of the test compounds or DMSO-growth media as untreated control for 6 days in a humidified incubator at 37° C. and 5% CO2 atmosphere. 10 μL ‘Cell Titer-Blue Reagent’ was added directly to each well after 6 days and the plates were incubated for 3 h at 37° C. to allow cells to convert resazurin to resorufin, and the fluorescent signal was measured at 590 nm using a multiplate ELISA reader (Bio-Tek Synergy HT plate reader, Bio-Tek, Winooski, Vt.). The percentage of viable cells in a compound-treated sample was calculated by considering the absorbance of the DMSO-growth media treated sample as 100%. Data was analysed and IC50 value was calculated using GraphPad Prism Software. All experimental points were done in triplicate and experiments were repeated at least thrice.

Data set [2] has as its system RWPE-1 cells. Nature of the data set: Cytotoxicity in normal prostatic epithelial RWPE-1 cells. As to conditions: read-out: cytotoxicity IC50; RWPE-1 normal cells. The protocol:
as §1, §2, §3
(§4) The cell viability assay was performed using a standard methyl thiazolyldiphenyl tetrazolium bromide (MTT) assay. In this assay, approximately 5,000 cells/well were seeded in 100 μL growth media in poly-L-lysine coated 96-well plates. After 1 day of plating, the cells were treated with additional 100 μL of various concentrations of the test compounds or DMSO-growth media as untreated control for 3 days more in a humidified incubator at 37° C. and 5% CO2 atmosphere. After 3 days, the culture medium was replaced with 100 μL of MTT solution (using 1 mg/ml stock in growth media) per well and further incubated at 37° C. for 3-4 h. To dissolve the formazan crystals formed in each well by mitochondrial reductase from live cells, 100 μL DMSO was added in each well and shaked for 30 min at RT using an orbital shaker. The absorbance of each well was measured at 570 nm using a multiplate ELISA reader (Bio-Tek Synergy HT plate reader, Bio-Tek, Winooski, Vt.). The percentage of viable cells in a compound-treated sample was calculated by considering the absorbance of the DMSO-growth media treated sample as 100%. All experimental points were done in triplicate and experiments were repeated at least thrice.

The target in data set [3] is T1, androgen receptor (AR) (Homo sapiens, UniProt P10275, T878A).
T1 construct: we performed western blot analysis of LNCaP and C4-2 cells' lysates after treated with the indicated drugs/compounds; endogenous in cells; host or cells: C4-2
The data set can be described thus: Western blot of AR expression in C4-2 cell lysates. The data set is classed as cell-based. As to conditions: C4-2 cells, 1 μM, 24 h, compared to vehicle and other treatments including ABI. On the technique in general: A western blot detects proteins with antibodies after separation by electrophoresis.
Protocol: First, 0.5×10^6 cells/well were seeded in 6-well plate coated with 0.01% poly-L-lysine. Next day, cells were treated with 1 μM concentrations of drugs/compounds or 0.01% DMSO-growth media as vehicle control and the treatment was continued for 24 h in a humidified incubator at 37° C. and 5% CO2 atmosphere. Following treatment, cells were washed with cold PBS and lysed in TBSN buffer (20 mmol/L Tris, pH 8.0, 150 mmol/L NaCl, 1.5 mmol/L EDTA, 5 mmol/L EGTA, 0.5% Nonidet P-40, and 0.5 mmol/L Na3VO4) supplemented with 1× protease inhibitor cocktail tablets to obtain cellular lysates. The protein concentration of the whole cell lysate was quantified by Pierce BCA Protein Assay (Thermo Scientific). The lysate was run on 10% SDS-PAGE gel (40 μg of protein per lane) and β-actin (clone 8H10D10, Cell Signaling Technology) was used as a loading control. Proteins were transferred onto PVDF membrane and the nonspecific binding was blocked using 5% milk in PBS-T (0.05% Tween-20 in PBS buffer) for 1 h. […] Protein expression was normalized to β-actin and densitometry was calculated using ImageJ Software.

Data set [4] deals with LNCaP cells. Nature of the data set: In vitro scratch assay, LNCaP cell migration. The data set is classed as cell-based, human. Particulars: no treatment 4.8 μm/h. The text has this: (§5) We evaluated effects of the active leads on the cancer cell migration—as most often, prostate cancer cell metastasizes to bone leading to the advanced prostate cancer. We performed the well developed in vitro scratch assay to measure both LNCaP and C4-2 cell's migration in presence of the treatments of all these active synthetic compounds. We calculated the migration speed based on the distance travelled/h. The LNCaP cells with no treatment migrated at a speed of 4.8 μm/h, whereas, treatment with 1, 2, 3 and 4 led to a slower rate (2.2, 3.5, 2.6 and 3.7 μm/h respectively) of migration; almost half of the migration speed as compared to that of the non-treated cells. The C4-2 cells with no treatment migrated at a speed of 6.5 μm/h whereas, treatment with 1, 2, 3 and 4 led to a slower rate (2.4, 3.3, 3.9 and 2.5 μm/h respectively) of migration (FIGS. 3D-3E). Since migration is the first step towards invasion and metastasis of cancer cells 1, 2, 3 and 4 might as well interfere with the metastasis process and lead 1 was found as the most efficient among these based on the migration speed rate in both the cells.

The test system of data set [5] is C4-2 cells. The data set can be described thus: In vitro scratch assay, C4-2 cell migration. The data set is classed as cell-based, human. Particulars: no treatment 6.5 μm/h.
Source text: as §5

For data set [6] the following is noted: mouse liver microsomes, 3 μM, 37° C., 60 min. On the technique in general: Microsomes from liver hold many membrane-bound enzymes, among them those of drug oxidation.
Protocol: In this assay, the lead compounds were incubated with the respective microsomes at 37° C. and the incubated mixture was analyzed by LC-MS/MS to quantify the remaining parent molecule.
All the test compounds were incubated in duplicate at 3 μM concentration with mouse and human liver microsomes at 37° C. The reaction mixture contained microsomal enzyme in 100 mM potassium phosphate buffer of pH 7.4. Warfarin and verapamil were used as negative and positive control in this assay. After 0 min and 60 min incubation, aliquots were removed from each experimental and control reaction and mixed with an equal volume of ice-cold Stop Solution (0.3% acetic acid in acetonitrile). The samples were centrifuged to remove precipitated protein, and the supernatants were analyzed by LC-MS/MS to quantify the remaining parent molecule. Data represents % remaining as compared to the time zero concentration as 100%.
Data set [7] concerns LuCaP35CR xenografts. Nature of the data set: LuCaP35CR patient derived xenograft (PDX) mice model. In general terms: In xenograft studies the graft and the host belong to different species.
Data set [8] concerns LNCaP cells. The data set can be described thus: Cell proliferation / growth inhibition in LNCaP cells. The data set is classed as cell-based. Particulars: Homo sapiens, read-out: growth inhibition IC50.
Protocol: All these cells were and maintained at 37° C. with 5% CO2 atmosphere in a humidified incubator following American Type Culture Collection (ATCC) protocol. LNCaP cells were grown in RPMI-1640 (Gibco) supplemented with 10% FBS (Atlanta Biologics), 20 mM HEPES and 1% penicillin/streptomycin (Invitrogen). […] For experiments, cells were used from 3 to 12 passages from thawing.
The nature of data set [9]: in vitro. Particulars: human. As for the experimental part: as §1, §2, §3, §4
Where [10] appears, read: C4-2 cells, read-out: growth inhibition / proliferation IC50.
The mark [11] stands for this setting: Homo sapiens, C4-2 cells, read-out: growth inhibition / proliferation IC50.
Setting [12] is: Homo sapiens, C4-2, read-out: growth inhibition / proliferation IC50.

T1 sequence (P10275 whole entry T878A): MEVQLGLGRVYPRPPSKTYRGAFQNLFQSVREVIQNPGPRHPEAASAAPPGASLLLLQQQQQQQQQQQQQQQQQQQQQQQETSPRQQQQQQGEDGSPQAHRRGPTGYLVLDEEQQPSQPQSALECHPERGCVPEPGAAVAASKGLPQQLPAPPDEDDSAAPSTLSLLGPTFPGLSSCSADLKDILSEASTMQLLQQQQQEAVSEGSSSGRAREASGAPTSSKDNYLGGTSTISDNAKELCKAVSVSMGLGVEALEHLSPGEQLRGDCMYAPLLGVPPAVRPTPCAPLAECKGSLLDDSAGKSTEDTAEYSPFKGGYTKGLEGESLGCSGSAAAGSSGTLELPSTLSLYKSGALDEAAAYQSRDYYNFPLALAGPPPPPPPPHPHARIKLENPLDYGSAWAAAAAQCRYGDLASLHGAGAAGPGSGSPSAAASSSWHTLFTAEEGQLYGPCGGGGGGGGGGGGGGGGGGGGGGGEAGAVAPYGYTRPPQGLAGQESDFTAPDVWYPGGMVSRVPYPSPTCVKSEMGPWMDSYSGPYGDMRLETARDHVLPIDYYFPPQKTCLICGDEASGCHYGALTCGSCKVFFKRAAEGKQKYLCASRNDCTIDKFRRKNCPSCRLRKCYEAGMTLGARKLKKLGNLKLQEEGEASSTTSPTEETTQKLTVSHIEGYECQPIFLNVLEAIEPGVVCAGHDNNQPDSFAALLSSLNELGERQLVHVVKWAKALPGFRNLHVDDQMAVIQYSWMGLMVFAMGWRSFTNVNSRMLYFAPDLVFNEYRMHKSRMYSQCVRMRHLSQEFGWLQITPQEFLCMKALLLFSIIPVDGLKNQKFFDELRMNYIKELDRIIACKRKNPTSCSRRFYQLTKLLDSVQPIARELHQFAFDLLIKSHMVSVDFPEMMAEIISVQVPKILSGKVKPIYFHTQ

Regarding `C#C[C@@]1(O)CC[C@@H]2[C@H]3[C@@H](CC[C@@]21C)[C@H]1CCC(=O)C=C1C[C@@H]3C` [Compound 1], the “proliferation IC50 compared to ABI, in words” value in data set [1] (C4-2 cells) is given as “much less in C4-2 cells than that of ABI”. Besides, the results for the IC50 in [1] (setting [10]) and in [2] were 0.72 nM and 54600 nM, respectively. The “AR degradation (western blot), in words” value in data set [3] is given as “degraded AR efficiently”. In addition, the migration speed in [4] is recorded as 2.2 μm/h; in data set [5] it was 2.4 μm/h. Further, in [6], the “metabolic stability compared to ABI” value is listed as “more stable than the current CRPC drug ABI”. Further, the average body weight entry in data set [7] (LuCaP35CR mice, over 16 days) is “did not change the average body weight”. In data set [7] (castrate mice bearing LuCaP35CR xenografts, 10 mg/kg, compared to vehicle), the tumor growth entry is “suppressed the tumor growth rapidly”.

Regarding `C#C[C@]1(O)CC[C@H]2[C@@H]3CCC4=CC(=O)CC[C@@H]4[C@H]3CC[C@@]21C` [NOR, norethisterone, reference compound], the results for the IC50 in [8] (LNCaP cells), in data set [1] (setting [11]) and in data set [9] were 32.5 nM, 7.04 nM and 86300 nM, respectively.

Consider `C#C[C@]1(O)CC[C@H]2[C@@H]3CCC4=CC(=O)CC[C@@H]4[C@H]3CC[C@@]21CC` [LEV, levonorgestrel, reference compound], for which the IC50 in data set [8] (LNCaP cells) stood at 181 nM; in [1] (setting [11]), 41.8 nM; in data set [9] it was 59700 nM.

`C#C[C@]1(O)CC[C@H]2[C@@H]3CCC4=CC(=O)CC[C@]4(C)[C@H]3CC[C@@]21C` [Compound 2, Ethisterone]: the IC50 in [1] (setting [12]) is 11 nM; in [9], 18300 nM. In addition, the migration speed came out at 3.5 μm/h in data set [4] and 3.3 μm/h in data set [5].

On to `C[C@]12CC[C@H](O)CC1=CC[C@@H]1[C@@H]2CC[C@]2(C)C(c3cccnc3)=CC[C@@H]12` [ABI, abiraterone, reference compound], for which the IC50 in data set [9] (RWPE-1 normal prostatic epithelial cells) worked out at 7200 nM.

As to `C#C[C@]1(O)CC[C@H]2[C@@H]3CCC4=CC(=NO)CC[C@@H]4[C@H]3CC[C@@]21C` [Compound 4], the migration speed in data set [4] is recorded as 3.7 μm/h; in [5] it was 2.5 μm/h.

Regarding `CC[C@@]1(O)CC[C@@H]2[C@H]3[C@@H](CC[C@@]21C)[C@H]1CCC(=O)CC1C[C@@H]3C` (some centres unmarked) [Compound 13], the IC50 worked out at 3.5 nM in [1] (setting [10]) and 17800 nM in [2].

Regarding `C[C@H]1CC2=CC(=O)CC[C@@H]2[C@@H]2CC[C@@]3(C)[C@H](CC[C@]3(O)C#Cc3ccccc3N)[C@@H]21` [Compound 15], the IC50 in data set [1] (setting [10]) worked out at 4.1 nM; in data set [2], 13500 nM.

Consider `C#C[C@@]1(O)CC[C@@H]2[C@H]3[C@@H](CC[C@@]21C)[C@H]1CCC(=NO)C=C1C[C@H]3C` [Compound 3], for which the IC50 in data set [1] (setting [11]) is less than 100 nM. In addition, the figures for the migration speed in data set [4] and in data set [5] were 2.6 μm/h and 3.9 μm/h, respectively.

With `C#C[C@]1(O)CC[C@H]2[C@@H]3[C@H](C)CC4=C(CCC(=O)C4)[C@H]3CC[C@@]21C` [TIB, tibolone, reference compound], the values for the IC50 in [8] (LNCaP), in data set [1] (setting [12]) and in [9] were 24.9 nM, 3.12 nM and 23300 nM, respectively.
